# Data as given in patent US20230017045A1, “PYRIDINE AND PYRIMIDINE CARBOXYLATE HERBICIDES AND METHODS OF USE THEREOF” (Dow AgroSciences LLC, priority 2017, published 2023).
# Where two headings read alike, the source gives them in different places.
# Tested on: test plant species
# Experiment: Post-emergent herbicidal activity test (greenhouse, foliar spray, visual growth reduction)
# Format: in vivo
# Details: post-emergence, 336 h, 140 g ai/ha
# Summary of the method: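 Visual scoring 14 d after treatment (0 = no injury, 100 = complete control) against nontreated and solvent-blank plants gave percent growth reduction. Foliar application used a track sprayer delivering 187 L/ha to seedlings at first or second true leaf stage, grown at 23–29 °C day, ~15 h photoperiod.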
# [1] = ALOMY: blackgrass (Alopecurus myosuroides), 14 days after application, read-out: Visual Growth Reduction (%) 14 Days After Application, ALOMY
# [2] = AMARE: redroot pigweed (Amaranthus retroflexus), 14 days after application, read-out: Visual Growth Reduction (%) 14 Days After Application, AMARE
# [3] = AVEFA: wild oat (Avena fatua), 14 days after application, read-out: Visual Growth Reduction (%) 14 Days After Application, AVEFA
# [4] = CHEAL: lambsquarters (Chenopodium album), 14 days after application, read-out: Visual Growth Reduction (%) 14 Days After Application, CHEAL
# [5] = CIRAR: canada thistle (Cirsium arvense), 14 days after application, read-out: Visual Growth Reduction (%) 14 Days After Application, CIRAR
# [6] = CYPES: yellow nutsedge (Cyperus esculentus), 14 days after application, read-out: Visual Growth Reduction (%) 14 Days After Application, CYPES
# [7] = DIGSA: crabgrass (Digitaria sanguinalis), 14 days after application, read-out: Visual Growth Reduction (%) 14 Days After Application, DIGSA
# [8] = ECHCG: barnyardgrass (Echinochloa crus-galli), 14 days after application, read-out: Visual Growth Reduction (%) 14 Days After Application, ECHCG
# [9] = IPOHE: ivy-leaf morning glory (Ipomoea hederacea), 14 days after application, read-out: Visual Growth Reduction (%) 14 Days After Application, IPOHE
# [10] = ORYSA: rice (Oryza sativa), 14 days after application, read-out: Visual Growth Reduction (%) 14 Days After Application, ORYSA
# [11] = SETFA: giant foxtail (Setaria faberi), 14 days after application, read-out: Visual Growth Reduction (%) 14 Days After Application, SETFA
# [12] = SORVU: grain sorghum (Sorghum vulgare), 14 days after application, read-out: Visual Growth Reduction (%) 14 Days After Application, SORVU
# [13] = STEME: common chickweed (Stellaria media), 14 days after application, read-out: Visual Growth Reduction (%) 14 Days After Application, STEME
# [14] = TRZAS: wheat, spring (Triticum aestivum), 14 days after application, read-out: Visual Growth Reduction (%) 14 Days After Application, TRZAS
# [15] = KCHSC: kochia (Bassia scoparia), 14 days after application, read-out: Visual Growth Reduction (%) 14 Days After Application, KCHSC
# [16] = blackgrass (Alopecurus myosuroides), 14 Days After Application, read-out: Visual Growth Reduction (%) ALOMY
# [17] = canada thistle (Cirsium arvense), 14 Days After Application, read-out: Visual Growth Reduction (%) CIRAR
# [18] = crabgrass (Digitaria sanguinalis), 14 Days After Application, read-out: Visual Growth Reduction (%) DIGSA
# [19] = lambsquarters (Chenopodium album), 14 Days After Application, read-out: Visual Growth Reduction (%) CHEAL
# [20] = redroot pigweed (Amaranthus retroflexus), 14 Days After Application, read-out: Visual Growth Reduction (%) AMARE
# [21] = wild oat (Avena fatua), 14 Days After Application, read-out: Visual Growth Reduction (%) AVEFA
# [22] = yellow nutsedge (Cyperus esculentus), 14 Days After Application, read-out: Visual Growth Reduction (%) CYPES
SMILES,pest or weed control at 140 g/ha [1] [%],pest or weed control at 140 g/ha [2] [%],pest or weed control at 140 g/ha [3] [%],pest or weed control at 140 g/ha [4] [%],pest or weed control at 140 g/ha [5] [%],pest or weed control at 140 g/ha [8] [%],pest or weed control at 140 g/ha [9] [%],pest or weed control at 140 g/ha [10] [%],pest or weed control at 140 g/ha [11] [%],pest or weed control at 140 g/ha [12] [%],pest or weed control at 140 g/ha [13] [%],pest or weed control at 140 g/ha [14] [%],pest or weed control at 140 g/ha [15] [%],pest or weed control at 140 g/ha [16] [%],pest or weed control at 140 g/ha [17] [%],pest or weed control at 140 g/ha [18] [%],pest or weed control at 140 g/ha [19] [%],pest or weed control at 140 g/ha [20] [%],pest or weed control at 140 g/ha [21] [%],pest or weed control at 140 g/ha [22] [%],further results
"COC(=O)c1nc(-c2ccc(Cl)c(OC)c2F)cc(Cl)c1Cl [F76, methyl 3,4-dichloro-6-(4-chloro-2-fluoro-3-methoxyphenyl)picolinate]",0 to 29,30 to 44,0 to 29,45 to 59,0 to 29,0 to 29,30 to 44,0 to 29,0 to 29,0 to 29,0 to 29,0 to 29,,,,,,,,,pest or weed control at 140 g/ha [6]: 30 to 44%; pest or weed control at 140 g/ha [7]: 0 to 29%
"COC(=O)c1nc(-c2ccc(Cl)c(C)c2F)ccc1Cl [F272, Methyl 3-chloro-6-(4-chloro-2-fluoro-3-methylphenyl) picolinate]",,,,,,0 to 29,0 to 29,0 to 29,0 to 29,0 to 29,0 to 29,0 to 29,0 to 29,0 to 29,0 to 29,0 to 29,0 to 29,0 to 29,0 to 29,0 to 29,
"O=C(O)c1nc(-c2ccc(C(F)(F)F)c(Cl)c2)ccc1Cl [F314, 3-Chloro-6-(3-chloro-4-(trifluoromethyl)phenyl) picolinic acid]",,,,,,0 to 29,95 to 100,0 to 29,0 to 29,75 to 84,0 to 29,0 to 29,0 to 29,0 to 29,45 to 59,75 to 84,30 to 44,0 to 29,0 to 29,0 to 29,
"COC(=O)c1nc(-c2ccc(C(F)(F)F)cc2Cl)ccc1[N+](=O)[O-] [F201, Methyl 6-(2-chloro-4-(trifluoromethyl)phenyl)-3-nitropicolinate]",,,,,,0 to 29,0 to 29,0 to 29,0 to 29,0 to 29,0 to 29,0 to 29,0 to 29,0 to 29,0 to 29,0 to 29,0 to 29,45 to 59,0 to 29,0 to 29,
"COC(=O)c1nc(-c2ccc(C(F)(F)F)cc2Cl)c(I)cc1Cl [F6, Methyl 3-chloro-6-(2-chloro-4-(trifluoromethyl)phenyl)-5-iodopicolinate]",0 to 29,0 to 29,0 to 29,0 to 29,60 to 74,,,,,,,,,,,,,,,,"pest or weed control at 140 g/ha [6]: 0 to 29%; pest or weed control at 140 g/ha [7]: 0 to 29%; pest or weed control at 140 g/ha (barnyardgrass (Echinochloa crus-galli), 14 Days After Application, read-out: Visual Growth Reduction (%) ECHCG): 0 to 29%; pest or weed control at 140 g/ha (common chickweed (Stellaria media), 14 Days After Application, read-out: Visual Growth Reduction (%) STEME): 0 to 29%; pest or weed control at 140 g/ha (giant foxtail (Setaria faberi), 14 Days After Application, read-out: Visual Growth Reduction (%) SETFA): 0 to 29%; pest or weed control at 140 g/ha (ivy-leaf morning glory (Ipomoea hederacea), 14 Days After Application, read-out: Visual Growth Reduction (%) IPOHE): 45 to 59%; pest or weed control at 140 g/ha (johnsongrass (Sorghum vulgare), 14 Days After Application, read-out: Visual Growth Reduction (%) SORVU): 45 to 59%; pest or weed control at 140 g/ha (kochia (Bassia scoparia), 14 Days After Application, read-out: Visual Growth Reduction (%) KCHSC): 45 to 59%; pest or weed control at 140 g/ha (rice (Oryza sativa), 14 Days After Application, read-out: Visual Growth Reduction (%) ORYSA): 0 to 29%; pest or weed control at 140 g/ha (wheat, spring (Triticum aestivum), 14 Days After Application, read-out: Visual Growth Reduction (%) TRZAS): 0 to 29%"
"O=C(O)c1nc(-c2ccc3[nH]ccc3c2)c(F)cc1Cl [F199, 3-Chloro-5-fluoro-6-(1H-indol-5-yl)picolinic acid]",0 to 29,0 to 29,0 to 29,30 to 44,0 to 29,0 to 29,0 to 29,0 to 29,0 to 29,0 to 29,0 to 29,0 to 29,0 to 29,,,,,,,,pest or weed control at 140 g/ha [6]: 0 to 29%; pest or weed control at 140 g/ha [7]: 0 to 29%
"COC(=O)c1nc(-c2ccc3c(c2OC)OC(F)(F)O3)c(F)cc1Cl [F235, Methyl 3-chloro-6-(2,2-difluoro-4-methoxybenzo[d][1,3]dioxol-5-yl)-5-fluoropicolinate]",,,,,,95 to 100,95 to 100,45 to 59,95 to 100,95 to 100,85 to 94,95 to 100,95 to 100,60 to 74,95 to 100,95 to 100,95 to 100,95 to 100,95 to 100,0 to 29,
"C=Cc1c(C(F)(F)F)ccc(-c2nc(C(=O)OC)c(Cl)cc2F)c1Cl [F338, Methyl 3-chloro-6-(2-chloro-4-(trifluoromethyl)-3-vinylphenyl)-5-fluoropicolinate]",,,,,,0 to 29,95 to 100,0 to 29,75 to 84,85 to 94,0 to 29,30 to 44,45 to 59,0 to 29,,60 to 74,85 to 94,95 to 100,30 to 44,0 to 29,
"COC(=O)c1nc(-c2ccc(Cl)c(C(F)F)c2Cl)ccc1Cl [F281, Methyl 3-chloro-6-(2,4-dichloro-3-(difluoromethyl)phenyl)picolinate]",,,,,,0 to 29,85 to 94,0 to 29,30 to 44,85 to 94,0 to 29,0 to 29,0 to 29,0 to 29,0 to 29,0 to 29,85 to 94,75 to 84,0 to 29,0 to 29,
